According to publication PMC11271967, “An inhibitory mechanism of AasS, an exogenous fatty acid scavenger: Implications for re-sensitization of FAS II antimicrobials” (PLOS Pathogens, 2024):
pKi: −log10 of the molar value. “And” between values parts separate entries of the source, which are not always exact repeats. Identical values can stand only once. Like-named read-outs stand apart in the source and are kept apart here.

Assays:
AasS [1] = experiment: In vitro enzymatic activity of AasS (acyl-ACP formation, conformationally-sensitive urea PAGE, ImageJ semi-quantitation); format: biochemical, Vibrio harveyi
AasS [2] = target: AasS (Vibrio harveyi, UniProt Q00IB3); experiment: Michaelis-Menten curves of AasS reaction with C10-AMS supplemented; format: biochemical
Procedure: To ascertain this hypothesis, we set up three combinations of AasS reaction with the varied order of C10-AMS inhibitor added in relative to C10 substrate. Namely, these included (i) addition of C10-AMS after C10 pre-incubation (S1B Fig), (ii) simultaneous addition of C10-AMS and C10 (S1C Fig), and (iii) supplementation of C10-AMS prior to C10 (S1D Fig). […] Next, we generated Michaelis-Menten curves of AasS enzyme to evaluate the inhibitory pattern of C10-AMS against ATP cofactor and C10 acyl substrate (S2 Fig).
Supplementary file ppat.1012376.s004.tif: S2 Fig Use of Michaelis-Menten curves to evaluate inhibition mode of AasS by the C10-AMS molecule. Michaelis-Menten curves of AasS reaction for the ATP cofactor (A) and C10 acyl substrate (C), on the condition of C10-AMS inhibitor supplemented at varied concentrations. C10-AMS was added at different level (ranging from 0, 125, 250, to 500 nM). Based on the dogma of Michaelis-Menten equation, a number of crosspoints of two vertically-intersecting dashed-lines (indicated with arrows) were given to determine the values of Km and Vmax. Of note, the coordinate (x,y) of the resultant crosspoint denotes the number (Km, Vmax /2). The values of Km and Vmax for AasS inhibited by C10-AMS in relative to ATP cofactor (B) and C10 substrate (D). […] Designations: Km, Michaelis constant; Vmax, Maximum velocity. (TIF)

[3] = test system: AasS-expressing E. coli ΔbioC strain; experiment: AasS-based bypass of biotin synthesis, bacterial viability on M9 agar; format: cell-based, Escherichia coli; details: M9 agar with E-C7 as sole carbon source; 0, 50, 100, 500 μM tested
Source text: Fig 4 Integrated evidence for the inhibition of AasS action with E-C7 fatty acid by C10-AMS compound. A. Schematic diagram of AasS-catalyzed ligation of E-C7 with holo-ACP recipient to produce E-C7-ACP. […] A representative photograph of three independent trials was given. C. Relatively-quantitative analysis (for the inhibitory efficacy of C10-AMS on AasS-catalyzed E-C7-ACP production. As for AasS reaction (panel B), unlike the three components that are at constant levels, namely (i) AasS (31.25 nM), (ii) E-C7 (600 μM), and (iii) ACP (3 μg), C10-AMS inhibitor was supplemented at varied ratio in relative to the AasS enzyme (ranging from 0:1, 25:1, 50:1, 100:1, 200:1, 300:1, 400:1, to 500:1). The ImageJ software was applied to measure the relative percentage (%) of E-C7 fatty acylation in each AasS reaction. The resultant graphs were plotted from three independent experiments, in which the output was expressed as means ± SD (standard deviations). D. Schematic diagram for C10-AMS inhibition of AasS-based bypass of biotin requirement by the E. coli ΔbioC biotin auxotroph on the non-permissive condition. […] Log-phase cultures in a series of 10-fold dilution (shown in panel on right hand), were spotted on the x-gal-containing M9 agar plates supplemented with C10-AMS inhibitor at varied levels (0, 50, 100, to 500 μM). The addition of x-gal substrate enabled the occurrence of blue colonies for better photographing, and viable colonies were highlighted with yellow arrows.
Given that AasS ligates E-C7 fatty acid with holo-ACP, giving E-C7-ACP, an alternative precursor for bacterial biotin synthesis, plasmid-borne aasS expression in ΔbioC biotin auxotroph strain is assumed to overcome the requirement of the primary BioC step [58, 83]. Apart from its WT, three single mutants of AasS (D411A, R426A, and K432A) were examined in vivo, of which the compromised activity is presumably proportional to the varied viability of the ΔbioC reporter strains on the non-permissive M9 growth condition. To test its inhibitory effect, the C10-AMS inhibitor in a series of dilution was supplemented. […]

[4] = increasing C10-AMS while varying ATP

AasS (Vibrio harveyi, UniProt Q00IB3), sequence (Q00IB3 entry or part of it): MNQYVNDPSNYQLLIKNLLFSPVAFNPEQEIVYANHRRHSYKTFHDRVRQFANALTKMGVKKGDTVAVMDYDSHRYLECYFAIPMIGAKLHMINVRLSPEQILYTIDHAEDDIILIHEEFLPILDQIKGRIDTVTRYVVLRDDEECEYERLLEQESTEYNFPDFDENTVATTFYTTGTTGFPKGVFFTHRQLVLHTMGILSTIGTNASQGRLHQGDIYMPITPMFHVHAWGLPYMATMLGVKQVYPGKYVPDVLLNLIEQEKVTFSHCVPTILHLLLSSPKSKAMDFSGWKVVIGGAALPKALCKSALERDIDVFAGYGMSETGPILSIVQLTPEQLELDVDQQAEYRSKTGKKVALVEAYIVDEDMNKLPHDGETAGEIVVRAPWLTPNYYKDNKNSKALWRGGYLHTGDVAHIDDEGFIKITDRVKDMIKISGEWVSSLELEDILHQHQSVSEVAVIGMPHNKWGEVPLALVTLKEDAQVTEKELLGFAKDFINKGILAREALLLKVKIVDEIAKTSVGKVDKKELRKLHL

## CCCCCCCCCC(=O)NS(=O)(=O)OC[C@H]1O[C@@H](n2cnc3c(N)ncnc32)[C@H](O)[C@@H]1O [C10-AMS]
AasS [1]
  inhibition of C10 fatty acylation, Average (S1E Fig, second block; order of addition not printed): 64.1924% and 78.0145% and 84.8528% and 86.8699%
  inhibition of C10 fatty acylation, Average (S1E Fig, third block; order of addition not printed): 82.6351% and 89.1845% and 93.1119% and 91.664%
AasS [1]; C10 substrate fixed at 80 μM, AasS 3 nM, semi-quantitative gel assay, read-out: inhibition constant (Ki) of C10-AMS vs AasS
  pKi: ~6.21 and 6.21 and ~6.22
AasS [1]; E-C7 600 μM, AasS 31.25 nM, read-out: Ki for E-C7 acyl substrate
  pKi: ~5.53 and 5.53
AasS [1]; condition 1#, C10 80 μM, AasS 3 nM, read-out: Ki, order-of-addition experiment
  pKi: 6.17
AasS [1]; condition 2#, C10 80 μM, AasS 3 nM, read-out: Ki, order-of-addition experiment
  pKi: 5.86
AasS [2]; 125 nM C10-AMS, ATP 0.125 (unit not given)
  AasS reaction rate, Michaelis-Menten curve for ATP, Average: 0.1701
AasS [2]; 125 nM C10-AMS, ATP 0.25
  AasS reaction rate, Michaelis-Menten curve for ATP, Average: 0.2829
AasS [2]; 125 nM C10-AMS, ATP 0.5
  AasS reaction rate, Michaelis-Menten curve for ATP, Average: 0.452
AasS [2]; 125 nM C10-AMS, ATP 1
  AasS reaction rate, Michaelis-Menten curve for ATP, Average: 0.6373
AasS [2]; 125 nM C10-AMS, ATP 2
  AasS reaction rate, Michaelis-Menten curve for ATP, Average: 0.8268
AasS [2]; 125 nM C10-AMS, C10 5 (unit not given)
  AasS reaction rate, Michaelis-Menten curve for C10 acyl substrate, Average: 0.6857
AasS [2]; 125 nM C10-AMS, C10 10
  AasS reaction rate, Michaelis-Menten curve for C10 acyl substrate, Average: 0.7781
AasS [2]; 125 nM C10-AMS, C10 20
  AasS reaction rate, Michaelis-Menten curve for C10 acyl substrate, Average: 0.8956
AasS [2]; 125 nM C10-AMS, C10 40
  AasS reaction rate, Michaelis-Menten curve for C10 acyl substrate, Average: 0.924
AasS [2]; 250 nM C10-AMS, ATP 0.125 (unit not given)
  AasS reaction rate, Michaelis-Menten curve for ATP, Average: 0.1042
AasS [2]; 250 nM C10-AMS, ATP 0.25
  AasS reaction rate, Michaelis-Menten curve for ATP, Average: 0.1505
AasS [2]; 250 nM C10-AMS, ATP 0.5
  AasS reaction rate, Michaelis-Menten curve for ATP, Average: 0.2695
AasS [2]; 250 nM C10-AMS, ATP 1
  AasS reaction rate, Michaelis-Menten curve for ATP, Average: 0.5022
AasS [2]; 250 nM C10-AMS, ATP 2
  AasS reaction rate, Michaelis-Menten curve for ATP, Average: 0.6244
AasS [2]; 250 nM C10-AMS, C10 5 (unit not given)
  AasS reaction rate, Michaelis-Menten curve for C10 acyl substrate, Average: 0.3359
AasS [2]; 250 nM C10-AMS, C10 10
  AasS reaction rate, Michaelis-Menten curve for C10 acyl substrate, Average: 0.4164
AasS [2]; 250 nM C10-AMS, C10 20
  AasS reaction rate, Michaelis-Menten curve for C10 acyl substrate, Average: 0.4772
AasS [2]; 250 nM C10-AMS, C10 40
  AasS reaction rate, Michaelis-Menten curve for C10 acyl substrate, Average: 0.4877
AasS [2]; 500 nM C10-AMS, ATP 0.125 (unit not given)
  AasS reaction rate, Michaelis-Menten curve for ATP, Average: 0.0721
AasS [2]; 500 nM C10-AMS, ATP 0.25
  AasS reaction rate, Michaelis-Menten curve for ATP, Average: 0.08914
AasS [2]; 500 nM C10-AMS, ATP 0.5
  AasS reaction rate, Michaelis-Menten curve for ATP, Average: 0.1634
AasS [2]; 500 nM C10-AMS, ATP 1
  AasS reaction rate, Michaelis-Menten curve for ATP, Average: 0.2728
AasS [2]; 500 nM C10-AMS, ATP 2
  AasS reaction rate, Michaelis-Menten curve for ATP, Average: 0.3695
AasS [2]; 500 nM C10-AMS, C10 5 (unit not given)
  AasS reaction rate, Michaelis-Menten curve for C10 acyl substrate, Average: 0.2278
AasS [2]; 500 nM C10-AMS, C10 10
  AasS reaction rate, Michaelis-Menten curve for C10 acyl substrate, Average: 0.2903
AasS [2]; 500 nM C10-AMS, C10 20
  AasS reaction rate, Michaelis-Menten curve for C10 acyl substrate, Average: 0.3259
AasS [2]; 500 nM C10-AMS, C10 40
  AasS reaction rate, Michaelis-Menten curve for C10 acyl substrate, Average: 0.3858
AasS [2]; [4]
  change of Michaelis constant (Km) of AasS: increase
  change of maximum velocity (Vmax) of AasS: declined
AasS [2]; varying ATP, C10-AMS 0-500 nM
  mode of inhibition against ATP ligand: mixed inhibition
AasS [2]; varying C10, C10-AMS 0-500 nM
  inhibitory pattern for the C10 acyl substrate: mixed type of inhibition
[3]
  C10-AMS level that markedly impaired AasS-based bypass of biotin synthesis: over 100 μM
